Key:
[1] = biological target: T1, Muscarinic acetylcholine receptor M5 (Homo sapiens, UniProt P08912)
T1 sequence (P08912 whole entry): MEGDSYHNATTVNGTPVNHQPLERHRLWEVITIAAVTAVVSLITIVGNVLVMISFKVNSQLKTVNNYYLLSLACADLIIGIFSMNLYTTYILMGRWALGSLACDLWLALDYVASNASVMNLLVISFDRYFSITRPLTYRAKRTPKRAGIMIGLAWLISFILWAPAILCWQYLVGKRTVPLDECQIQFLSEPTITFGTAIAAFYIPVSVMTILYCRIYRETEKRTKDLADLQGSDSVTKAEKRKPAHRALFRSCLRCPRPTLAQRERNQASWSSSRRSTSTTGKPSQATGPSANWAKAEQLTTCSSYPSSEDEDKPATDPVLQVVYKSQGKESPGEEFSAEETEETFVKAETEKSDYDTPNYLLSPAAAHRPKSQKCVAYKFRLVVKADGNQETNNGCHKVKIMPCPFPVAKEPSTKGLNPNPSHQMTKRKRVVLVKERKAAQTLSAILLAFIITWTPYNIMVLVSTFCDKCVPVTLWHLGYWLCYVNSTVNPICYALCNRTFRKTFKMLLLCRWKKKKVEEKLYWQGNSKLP

[2] = biological target: 5-hydroxytryptamine receptor 6 (Homo sapiens, UniProt P50406)
Chain of 5-hydroxytryptamine receptor 6 (P50406 whole entry): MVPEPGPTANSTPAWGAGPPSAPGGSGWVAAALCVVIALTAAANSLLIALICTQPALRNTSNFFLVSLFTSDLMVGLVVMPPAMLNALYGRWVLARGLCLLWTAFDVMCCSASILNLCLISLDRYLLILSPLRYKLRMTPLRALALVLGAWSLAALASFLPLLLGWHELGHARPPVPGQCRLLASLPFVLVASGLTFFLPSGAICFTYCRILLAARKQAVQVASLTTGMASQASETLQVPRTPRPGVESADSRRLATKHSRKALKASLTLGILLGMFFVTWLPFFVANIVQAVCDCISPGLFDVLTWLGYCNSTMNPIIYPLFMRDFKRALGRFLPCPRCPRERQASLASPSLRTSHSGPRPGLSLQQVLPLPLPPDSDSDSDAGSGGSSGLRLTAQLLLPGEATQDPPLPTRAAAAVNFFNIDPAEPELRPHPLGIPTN

D(1B) dopamine receptor = D(1B) dopamine receptor (Homo sapiens, UniProt P21918)
Substance-K receptor = biological target: T2, Substance-K receptor (Homo sapiens, UniProt P21452)
T2 sequence (P21452 whole entry): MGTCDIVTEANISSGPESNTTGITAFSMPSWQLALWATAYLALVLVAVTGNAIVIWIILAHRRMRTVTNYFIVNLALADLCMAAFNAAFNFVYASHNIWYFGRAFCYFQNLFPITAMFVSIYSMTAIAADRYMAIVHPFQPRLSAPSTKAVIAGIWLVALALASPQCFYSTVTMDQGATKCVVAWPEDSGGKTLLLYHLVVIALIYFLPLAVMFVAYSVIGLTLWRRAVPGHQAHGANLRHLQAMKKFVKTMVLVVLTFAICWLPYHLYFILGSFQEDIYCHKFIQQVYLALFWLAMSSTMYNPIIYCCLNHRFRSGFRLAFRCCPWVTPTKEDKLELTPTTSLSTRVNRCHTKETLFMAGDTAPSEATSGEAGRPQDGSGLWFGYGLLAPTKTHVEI

[3] = biological target: T3, Muscarinic acetylcholine receptor M4 (Homo sapiens, UniProt P08173)
T3 sequence (P08173 whole entry): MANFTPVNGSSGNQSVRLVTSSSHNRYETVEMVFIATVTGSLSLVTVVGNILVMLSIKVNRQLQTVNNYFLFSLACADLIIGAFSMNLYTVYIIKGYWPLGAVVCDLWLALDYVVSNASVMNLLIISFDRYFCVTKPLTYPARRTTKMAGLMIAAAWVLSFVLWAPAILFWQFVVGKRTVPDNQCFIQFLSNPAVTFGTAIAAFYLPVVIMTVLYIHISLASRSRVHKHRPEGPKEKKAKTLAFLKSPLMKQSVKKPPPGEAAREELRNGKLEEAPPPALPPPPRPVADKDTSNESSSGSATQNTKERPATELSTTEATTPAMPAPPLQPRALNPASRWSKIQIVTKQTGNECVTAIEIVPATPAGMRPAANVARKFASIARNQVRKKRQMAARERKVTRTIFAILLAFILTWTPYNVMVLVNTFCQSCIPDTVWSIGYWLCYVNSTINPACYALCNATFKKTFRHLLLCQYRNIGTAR

[4] = biological target: 5-hydroxytryptamine receptor 7 (Homo sapiens, UniProt P34969)
[5] = biological target: Rod cGMP-specific 3',5'-cyclic phosphodiesterase subunit alpha (Homo sapiens, UniProt P16499); type: functional
Chain of Rod cGMP-specific 3',5'-cyclic phosphodiesterase subunit alpha (P16499 whole entry): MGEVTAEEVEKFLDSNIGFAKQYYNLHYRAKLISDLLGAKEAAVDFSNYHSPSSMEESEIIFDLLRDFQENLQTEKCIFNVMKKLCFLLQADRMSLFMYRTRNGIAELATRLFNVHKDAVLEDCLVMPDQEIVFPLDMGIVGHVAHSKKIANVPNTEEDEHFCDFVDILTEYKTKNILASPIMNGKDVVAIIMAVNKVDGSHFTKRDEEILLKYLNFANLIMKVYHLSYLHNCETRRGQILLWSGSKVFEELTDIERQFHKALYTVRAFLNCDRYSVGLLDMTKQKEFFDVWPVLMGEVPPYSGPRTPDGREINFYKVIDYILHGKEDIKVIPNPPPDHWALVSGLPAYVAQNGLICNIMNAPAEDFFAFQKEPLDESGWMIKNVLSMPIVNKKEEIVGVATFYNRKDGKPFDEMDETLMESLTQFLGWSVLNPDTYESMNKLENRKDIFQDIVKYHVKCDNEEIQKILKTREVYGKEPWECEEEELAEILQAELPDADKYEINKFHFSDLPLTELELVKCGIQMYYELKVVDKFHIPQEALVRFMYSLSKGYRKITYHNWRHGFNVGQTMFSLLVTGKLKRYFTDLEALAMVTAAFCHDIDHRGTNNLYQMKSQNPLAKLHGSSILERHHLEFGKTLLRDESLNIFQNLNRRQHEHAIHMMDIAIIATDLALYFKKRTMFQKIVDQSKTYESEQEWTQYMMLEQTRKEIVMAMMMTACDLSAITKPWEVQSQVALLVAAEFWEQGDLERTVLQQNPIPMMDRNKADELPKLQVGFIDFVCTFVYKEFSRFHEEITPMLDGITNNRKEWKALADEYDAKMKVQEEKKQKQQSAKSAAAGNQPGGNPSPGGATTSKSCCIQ

[6] = biological target: Gamma-aminobutyric acid type B receptor subunit 1 (Homo sapiens, UniProt Q9UBS5)
Chain of Gamma-aminobutyric acid type B receptor subunit 1 (Q9UBS5 whole entry): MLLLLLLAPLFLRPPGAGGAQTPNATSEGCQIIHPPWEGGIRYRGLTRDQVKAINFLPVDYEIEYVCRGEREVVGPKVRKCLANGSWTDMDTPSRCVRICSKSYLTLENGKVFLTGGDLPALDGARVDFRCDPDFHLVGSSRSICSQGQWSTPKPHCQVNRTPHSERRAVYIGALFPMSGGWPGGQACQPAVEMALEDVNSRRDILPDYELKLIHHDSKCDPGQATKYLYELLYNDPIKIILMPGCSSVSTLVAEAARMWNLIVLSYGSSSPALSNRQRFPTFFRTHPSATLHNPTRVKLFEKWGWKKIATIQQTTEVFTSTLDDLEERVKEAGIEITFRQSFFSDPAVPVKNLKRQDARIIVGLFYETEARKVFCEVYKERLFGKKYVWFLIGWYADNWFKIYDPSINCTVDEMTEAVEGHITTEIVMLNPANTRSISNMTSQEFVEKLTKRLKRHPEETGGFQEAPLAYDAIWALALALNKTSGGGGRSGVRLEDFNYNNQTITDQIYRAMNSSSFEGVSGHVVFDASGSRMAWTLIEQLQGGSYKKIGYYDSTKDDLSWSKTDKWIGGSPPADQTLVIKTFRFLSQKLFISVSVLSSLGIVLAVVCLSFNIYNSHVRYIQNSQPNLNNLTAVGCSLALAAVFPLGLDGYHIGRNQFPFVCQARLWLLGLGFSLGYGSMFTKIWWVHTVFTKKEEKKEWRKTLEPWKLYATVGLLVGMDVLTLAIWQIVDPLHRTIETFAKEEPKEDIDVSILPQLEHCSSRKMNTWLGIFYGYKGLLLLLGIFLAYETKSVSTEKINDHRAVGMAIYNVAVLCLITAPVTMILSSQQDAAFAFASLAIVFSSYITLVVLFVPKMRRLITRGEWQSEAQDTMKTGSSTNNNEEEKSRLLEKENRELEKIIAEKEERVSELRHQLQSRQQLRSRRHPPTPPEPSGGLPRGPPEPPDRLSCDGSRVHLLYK

[7] = biological target: 5-hydroxytryptamine receptor 5A (Homo sapiens, UniProt P47898)
Chain of 5-hydroxytryptamine receptor 5A (P47898 whole entry): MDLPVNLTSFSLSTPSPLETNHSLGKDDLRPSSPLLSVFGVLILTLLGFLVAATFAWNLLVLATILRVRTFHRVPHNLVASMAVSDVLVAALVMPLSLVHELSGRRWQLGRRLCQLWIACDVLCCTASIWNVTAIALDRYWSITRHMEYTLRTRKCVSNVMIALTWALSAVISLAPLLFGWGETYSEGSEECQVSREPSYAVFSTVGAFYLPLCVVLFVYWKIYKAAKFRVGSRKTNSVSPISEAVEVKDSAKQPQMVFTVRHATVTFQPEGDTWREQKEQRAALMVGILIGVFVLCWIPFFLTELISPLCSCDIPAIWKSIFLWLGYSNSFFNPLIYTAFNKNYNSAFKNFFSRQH

Cannabinoid receptor 1 = Cannabinoid receptor 1 (Homo sapiens, UniProt P21554); type: functional
[8] = biological target: Hydroxycarboxylic acid receptor 2 (Homo sapiens, UniProt Q8TDS4)
Chain of Hydroxycarboxylic acid receptor 2 (Q8TDS4 whole entry): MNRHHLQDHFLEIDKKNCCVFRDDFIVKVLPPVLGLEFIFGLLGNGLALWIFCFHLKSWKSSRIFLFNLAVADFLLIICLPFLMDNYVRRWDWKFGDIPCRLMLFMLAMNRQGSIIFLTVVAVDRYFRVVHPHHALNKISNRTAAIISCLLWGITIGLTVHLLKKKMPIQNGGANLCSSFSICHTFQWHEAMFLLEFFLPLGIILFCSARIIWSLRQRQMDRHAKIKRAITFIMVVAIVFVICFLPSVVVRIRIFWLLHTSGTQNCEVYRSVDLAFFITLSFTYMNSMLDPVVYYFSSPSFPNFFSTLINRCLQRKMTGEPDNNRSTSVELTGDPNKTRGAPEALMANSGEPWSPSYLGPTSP

[9] = biological target: T4, Type-2 angiotensin II receptor (Homo sapiens, UniProt P50052); type: functional
T4 sequence (P50052 whole entry): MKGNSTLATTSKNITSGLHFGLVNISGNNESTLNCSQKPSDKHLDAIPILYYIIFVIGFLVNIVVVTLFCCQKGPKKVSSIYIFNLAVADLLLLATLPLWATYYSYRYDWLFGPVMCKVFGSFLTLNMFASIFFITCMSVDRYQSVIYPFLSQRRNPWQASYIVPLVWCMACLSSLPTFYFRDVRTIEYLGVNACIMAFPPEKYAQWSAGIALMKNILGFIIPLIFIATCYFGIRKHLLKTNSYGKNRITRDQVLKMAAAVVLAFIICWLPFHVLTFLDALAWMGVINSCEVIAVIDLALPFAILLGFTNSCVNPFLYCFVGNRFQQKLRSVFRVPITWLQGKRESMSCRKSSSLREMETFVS

[10] = biological target: Sodium channel protein type 5 subunit alpha (Homo sapiens, UniProt Q14524); type: functional, cell-based
Chain of Sodium channel protein type 5 subunit alpha (Q14524 whole entry): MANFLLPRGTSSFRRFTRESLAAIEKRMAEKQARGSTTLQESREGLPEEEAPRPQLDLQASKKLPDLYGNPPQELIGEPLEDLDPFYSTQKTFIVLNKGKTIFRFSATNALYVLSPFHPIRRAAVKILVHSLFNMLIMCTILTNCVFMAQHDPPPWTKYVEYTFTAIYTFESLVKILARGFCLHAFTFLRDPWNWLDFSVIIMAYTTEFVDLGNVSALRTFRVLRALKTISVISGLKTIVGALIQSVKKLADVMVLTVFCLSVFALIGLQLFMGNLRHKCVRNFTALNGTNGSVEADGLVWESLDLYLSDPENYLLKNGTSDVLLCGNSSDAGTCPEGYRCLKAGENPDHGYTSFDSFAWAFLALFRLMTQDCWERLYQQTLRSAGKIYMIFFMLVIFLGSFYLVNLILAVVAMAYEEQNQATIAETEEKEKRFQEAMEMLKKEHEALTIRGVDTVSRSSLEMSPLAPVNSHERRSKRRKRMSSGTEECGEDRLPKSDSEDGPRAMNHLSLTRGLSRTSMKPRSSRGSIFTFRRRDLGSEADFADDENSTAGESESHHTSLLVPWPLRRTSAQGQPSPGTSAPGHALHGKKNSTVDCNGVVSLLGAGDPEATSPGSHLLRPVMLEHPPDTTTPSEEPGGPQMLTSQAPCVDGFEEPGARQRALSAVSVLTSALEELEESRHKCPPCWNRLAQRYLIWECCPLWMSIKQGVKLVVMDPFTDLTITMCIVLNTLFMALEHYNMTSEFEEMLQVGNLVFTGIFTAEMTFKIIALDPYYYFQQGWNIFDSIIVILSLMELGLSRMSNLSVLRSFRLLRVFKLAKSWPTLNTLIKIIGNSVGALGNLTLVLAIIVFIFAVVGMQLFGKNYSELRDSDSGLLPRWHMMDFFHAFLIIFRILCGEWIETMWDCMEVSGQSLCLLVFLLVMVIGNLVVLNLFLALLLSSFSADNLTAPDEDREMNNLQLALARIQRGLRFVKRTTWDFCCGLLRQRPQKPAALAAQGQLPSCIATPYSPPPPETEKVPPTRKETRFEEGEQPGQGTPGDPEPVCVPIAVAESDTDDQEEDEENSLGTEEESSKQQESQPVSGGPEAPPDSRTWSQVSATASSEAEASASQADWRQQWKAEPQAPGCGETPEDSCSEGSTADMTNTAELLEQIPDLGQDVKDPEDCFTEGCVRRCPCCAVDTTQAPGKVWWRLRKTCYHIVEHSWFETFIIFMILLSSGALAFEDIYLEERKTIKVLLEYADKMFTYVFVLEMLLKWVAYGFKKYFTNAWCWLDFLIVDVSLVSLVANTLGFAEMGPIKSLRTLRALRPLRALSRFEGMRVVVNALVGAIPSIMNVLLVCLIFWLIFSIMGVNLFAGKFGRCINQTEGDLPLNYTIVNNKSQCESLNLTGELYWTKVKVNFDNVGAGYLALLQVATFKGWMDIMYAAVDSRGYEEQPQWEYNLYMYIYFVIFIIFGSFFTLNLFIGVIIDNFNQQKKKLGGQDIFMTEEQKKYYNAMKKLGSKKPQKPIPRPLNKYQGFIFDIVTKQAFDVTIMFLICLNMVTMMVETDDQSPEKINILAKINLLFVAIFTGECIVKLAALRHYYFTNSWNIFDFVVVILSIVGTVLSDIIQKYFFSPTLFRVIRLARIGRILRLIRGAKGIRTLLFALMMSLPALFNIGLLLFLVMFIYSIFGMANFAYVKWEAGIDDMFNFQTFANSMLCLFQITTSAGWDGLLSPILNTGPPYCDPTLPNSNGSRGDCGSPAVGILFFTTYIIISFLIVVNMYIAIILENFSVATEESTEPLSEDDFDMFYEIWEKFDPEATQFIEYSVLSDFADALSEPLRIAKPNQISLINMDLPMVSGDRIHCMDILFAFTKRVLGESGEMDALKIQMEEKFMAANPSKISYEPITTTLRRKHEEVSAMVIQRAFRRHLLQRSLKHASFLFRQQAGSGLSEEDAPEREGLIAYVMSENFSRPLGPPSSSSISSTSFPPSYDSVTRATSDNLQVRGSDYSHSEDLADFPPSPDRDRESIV

[11] = biological target: T5, Alpha-2A adrenergic receptor (Homo sapiens, UniProt P08913)
T5 sequence (P08913 whole entry): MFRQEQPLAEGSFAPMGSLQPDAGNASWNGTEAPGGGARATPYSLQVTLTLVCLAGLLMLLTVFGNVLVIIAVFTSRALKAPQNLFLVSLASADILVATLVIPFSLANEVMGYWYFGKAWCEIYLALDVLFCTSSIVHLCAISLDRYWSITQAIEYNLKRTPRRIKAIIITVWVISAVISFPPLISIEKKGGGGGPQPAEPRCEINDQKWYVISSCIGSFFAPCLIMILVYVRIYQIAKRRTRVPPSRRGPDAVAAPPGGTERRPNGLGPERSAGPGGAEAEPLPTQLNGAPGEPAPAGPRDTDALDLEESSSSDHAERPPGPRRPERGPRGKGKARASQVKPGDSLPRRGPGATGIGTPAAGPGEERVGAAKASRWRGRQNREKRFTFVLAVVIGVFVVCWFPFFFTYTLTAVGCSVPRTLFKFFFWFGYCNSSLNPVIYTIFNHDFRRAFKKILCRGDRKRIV

Histamine H1 receptor = Histamine H1 receptor (Homo sapiens, UniProt P35367); type: functional, cell-based
Also: assay procedure not described here.

O=C(Nc1nc(-c2cc(Cl)cs2)c(N2CCN(C3CCCCC3)CC2)s1)c1cnc(N2CCC(C(=O)O)CC2)c(Cl)c1 [AVATROMBOPAG]
AC50 [1]: > 10 µM | AC50 [2]: > 10 µM | AC50 (D(1B) dopamine receptor): > 10 µM | AC50 (Substance-K receptor): > 10 µM | AC50 [3]: > 10 µM | AC50 [4]: > 10 µM | AC50 [5]: > 10 µM | AC50 [6]: > 10 µM | AC50 [7]: > 10 µM | AC50 (Cannabinoid receptor 1): > 10 µM

C[C@H]1C[C@H]2[C@@H]3CCC4=CC(=O)C=C[C@]4(C)[C@@]3(Cl)[C@@H](O)C[C@]2(C)[C@@]1(O)C(=O)CO [BECLOMETHASONE]
AC50 [8]: > 10 µM

NS(=O)(=O)c1cc(C2(O)NC(=O)c3ccccc32)ccc1Cl (centres undefined) [CHLORTHALIDONE]
AC50 [9]: > 100 µM

COc1ccc2c(c1)[C@]13CCCC[C@@H]1[C@H](C2)N(C)CC3 [DEXTROMETHORPHAN]
AC50 [10]: > 30 µM

O=C(CCCN1CC=C(n2c(=O)[nH]c3ccccc32)CC1)c1ccc(F)cc1 [DROPERIDOL]
AC50 [10]: 49 µM

CCn1cc(C(=O)O)c(=O)c2cc(F)c(N3CCNCC3)nc21 [ENOXACIN]
AC50 [1]: > 10 µM | AC50 [2]: > 10 µM | AC50 (D(1B) dopamine receptor): > 10 µM | AC50 (Substance-K receptor): > 10 µM | AC50 [3]: > 10 µM | AC50 [4]: > 10 µM | AC50 [5]: > 10 µM | AC50 [6]: > 10 µM | AC50 [7]: > 10 µM | AC50 (Cannabinoid receptor 1): > 10 µM

c1ccc2c(CC3=NCCN3)cccc2c1 [NAPHAZOLINE]
AC50 [11]: 0.0087 µM

NS(=O)(=O)c1cc(C(=O)O)cc(N2CCCC2)c1Oc1ccccc1 [PIRETANIDE]
AC50 [9]: > 100 µM

COCCCOc1ccnc(C[S+]([O-])c2nc3ccccc3[nH]2)c1C (centres undefined) [RABEPRAZOLE]
AC50 [8]: > 10 µM

O=C(CCCN1CCC2(CC1)C(=O)NCN2c1ccccc1)c1ccc(F)cc1 [SPIPERONE]
AC50 [11]: 17 µM | AC50 (Histamine H1 receptor): 7.1 µM
